One data set relates to SARS-CoV-2. The format is cell-based. As to conditions: 70% concentration, 30 min contact, 22 ± 2° C.
Data set [1] concerns C. albicans fungal strain. As to conditions: reported value of antibiotic; cited from earlier work.
Another data set relates to B. subtilis (gram+). As to conditions: reported value of antibiotic; cited from earlier work.
A further data set has as its system E. coli (gram−). Conditions: reported value of antibiotic; cited from earlier work.
The test system of the next data set is S. aureus (gram+). As to conditions: reported value of antibiotic; cited from earlier work.
The test system of the next data set is P. aeruginosa (gram−). As to conditions: reported value of antibiotic; cited from earlier work.

Consider `CCO` [Ethanol], for which the “Toxicity (highest dilution of the endpoint titer where full (80-100%) cytotoxicity was observed)” value in the data set on Vero E6 cells is reported as “None”. The “Virus Titer” value in the data set on SARS-CoV-2 was <0.7 log10 CCID50 of virus per 0.1 mL. The “LRV (log reduction value)” value with SARS-CoV-2 (vs virus control 4.3) is recorded as above 3.6.

With gentamycin, the MIC (usually the least concentration at which growth counts as inhibited) in data set [1] was 2.5 µg/mL; with B. subtilis (gram+), 4 µg/mL; with E. coli (gram−), 8 µg/mL; in the data set with S. aureus (gram+), 10 µg/mL; in the data set with P. aeruginosa (gram−) it was 4 µg/mL.

The record behind these values is patent publication US20240043618A1, “ANTIMICROBIAL COMPOSITIONS” (priority 2021, published 2024).
